Laboratory results reported in patent publication US9750727B2 (priority 2010, dated 2017).

Test system: drug-resistant clinical isolates of M. tuberculosis
Assay type: cell-based

Structure (SMILES): NC(=S)NN=Cc1ccncc1.[O-][Cl+3]([O-])([O-])O [new treatment]
- MIC for 88.8% of cultures: 3.125 to 6.25 mg/L
